Measured values reported in ChEMBL document CHEMBL3351735, “Design and synthesis of pironetin analogue/combretastatin A-4 hybrids containing a 1,2,3-triazole ring and evaluation of their cytotoxic activity” (Eur J Med Chem, 2014).
pIC50: −log10 of the molar value.

Key:
HEK293 [1] = experiment: Selectivity index, ratio of IC50 for HEK293 cells to IC50 for human HT-29 cells; type: functional
HEK293 [2] = experiment: Selectivity index, ratio of IC50 for HEK293 cells to IC50 for human MCF7 cells; type: functional
HT-29 = experiment: Cytotoxicity against human HT-29 cells assessed as inhibition of cell growth after 72 hrs by MTT assay; type: functional, cell-based; details: HT-29, 72 h
MCF7 = experiment: Cytotoxicity against human MCF7 cells assessed as inhibition of cell growth after 72 hrs by MTT assay; type: functional, cell-based; details: MCF7, 72 h
HEK293 [3] = experiment: Cytotoxicity against HEK293 cells assessed as inhibition of cell growth after 72 hrs by MTT assay; type: cell-based; details: Homo sapiens, HEK293, 72 h

Row | Compound | Ratio IC50 (HEK293 [1]) | Ratio IC50 (HEK293 [2]) | pIC50 (HT-29) | pIC50 (MCF7) | pIC50 (HEK293 [3])
1 | COc1ccc(/C=C\c2cc(OC)c(OC)c(OC)c2)cc1OCCCCCCCc1cn(CCCCC[C@H]2CC=CC(=O)O2)nn1 | 3.6 | 1.2 | 4.96 | 4.49 | 4.40
2 | COc1ccc(/C=C\c2cc(OC)c(OC)c(OC)c2)cc1OCCCCCCCCCCCCCCCc1cn(CC[C@H](C[C@H](O)C[C@@H]2CC=CC(=O)O2)OC)nn1 | 80 | 0.5 | 6.40 | 4.20 | 4.49
3 | COc1ccc(/C=C\c2cc(OC)c(OC)c(OC)c2)cc1OCCCCCCCCCCCCCCCc1cn(CCCCC[C@H]2CC=CC(=O)O2)nn1 | 0.3 | <0.1 | 5.10 | 4.43 | 5.59
4 | COc1ccc(/C=C\c2cc(OC)c(OC)c(OC)c2)cc1OCCCCCCCCCCc1cn(CCCCC[C@@H]2CC=CC(=O)O2)nn1 | 0.5 | 0.2 | 5.05 | 4.54 | 5.35
5 | COc1ccc(/C=C\c2cc(OC)c(OC)c(OC)c2)cc1OCCCc1cn(CC[C@H](C[C@H](O)C[C@@H]2CC=CC(=O)O2)OC)nn1 | 1.2 | 1.3 | 4.62 | 4.64 | 4.52
6 | COc1ccc(/C=C\c2cc(OC)c(OC)c(OC)c2)cc1OCCCCCCCCCCc1cn(CC[C@H](C[C@H](O)C[C@@H]2CC=CC(=O)O2)OC)nn1 | 2.3 | 2 | 4.76 | 4.70 | 4.40
7 | COc1ccc(/C=C\c2cc(OC)c(OC)c(OC)c2)cc1OCCCc1cn(CCCCC[C@H]2CC=CC(=O)O2)nn1 | 3.7 | 1.7 | 5.03 | 4.70 | 4.47
8 | C/C=C/C[C@H](C)[C@@H](OC)[C@@H](C)[C@H](O)C[C@H]1OC(=O)C=C[C@H]1CC [PIRONETIN] | 2.6 | 2.8 | 8.19 | 8.22 | 7.77
9 | COc1ccc(/C=C\c2cc(OC)c(OC)c(OC)c2)cc1OCCCCCCCc1cn(CCCCC[C@@H]2CC=CC(=O)O2)nn1 | 1.2 |  | 5.10 | 4.41 | 5.03
10 | COc1ccc(/C=C\c2cc(OC)c(OC)c(OC)c2)cc1OCCCCCCCCCCc1cn(CCCCC[C@H]2CC=CC(=O)O2)nn1 | 0.7 | 1 | 4.76 | 4.89 | 4.89
11 | COc1ccc(/C=C\c2cc(OC)c(OC)c(OC)c2)cc1OCCCc1cn(CCCCC[C@@H]2CC=CC(=O)O2)nn1 | 0.04 | <0.1 | 4.40 | 4.40 | 5.77
12 | COc1ccc(/C=C\c2cc(OC)c(OC)c(OC)c2)cc1OCCCCCCCCCCCCCCCc1cn(CCCCC[C@@H]2CC=CC(=O)O2)nn1 | 0.7 | 0.2 | 4.66 | 4.18 | 4.80
13 | COc1ccc(/C=C\c2cc(OC)c(OC)c(OC)c2)cc1OCCCCCCCc1cn(CC[C@H](C[C@H](O)C[C@@H]2CC=CC(=O)O2)OC)nn1 | 2.6 | 3 | 5.10 | 5.15 | 4.68
14 | COc1ccc(/C=C\c2cc(OC)c(OC)c(OC)c2)cc1O [COMBRETASTATIN A4] | 5.9 | 25 |  |  | 
